PubChem BioAssay AID256 (DTP/NCI, 2004)
“And” between values parts separate entries of the source, which are not always exact repeats. Equal entries are not always repeated. Toxic doses and inconclusive results are not listed.

Test system: CD2F1 mice, L1210 leukemia ip, survival T/C
Test: NCI In Vivo Anticancer Drug Screen. Data for tumor model L1210 Leukemia (intraperitoneal) in CD2F1 (CDF1) mice
Conditions: higher = longer survival
Method in brief: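 Antitumor effect is scored in animals hosting a serially transplanted tumor. Values compare compound-dosed animals against vehicle-only controls as a simple quotient.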

[1] = endpoint: mean survival time, dose: 100.0 mg/kg/injection, schedule: Q04DX003 (ip), vehicle: saline with Tween-80
[2] = endpoint: mean survival time, dose: 200.0 mg/kg/injection, schedule: Q04DX003 (ip), vehicle: saline with Tween-80
[3] = endpoint: mean survival time, dose: 400.0 mg/kg/injection, schedule: Q04DX003 (ip), vehicle: saline with Tween-80
[4] = endpoint: mean survival time, dose: 100.0 mg/kg/injection, schedule: Q01DX009 (ip), vehicle: saline
[5] = endpoint: mean survival time, dose: 200.0 mg/kg/injection, schedule: Q01DX009 (ip), vehicle: saline
[6] = endpoint: mean survival time, dose: 400.0 mg/kg/injection, schedule: Q01DX009 (ip), vehicle: saline
[7] = endpoint: mean survival time, dose: 100.0 mg/kg/injection, schedule: Q01DX009 (ip), vehicle: saline with Tween-80
[8] = endpoint: mean survival time, dose: 200.0 mg/kg/injection, schedule: Q01DX009 (ip), vehicle: saline with Tween-80
[9] = endpoint: mean survival time, dose: 400.0 mg/kg/injection, schedule: Q01DX009 (ip), vehicle: saline with Tween-80

COC(=O)[C@H]1[C@H]2C[C@@H]3c4[nH]c5cc(OC)ccc5c4CCN3C[C@H]2C[C@@H](OC(=O)/C=C/c2cc(OC)c(OC)c(OC)c2)[C@@H]1OC
T/C (endpoint: mean survival time, dose: 0.63 mg/kg/injection, schedule: Q01DX009 (ip), vehicle: saline sonified): 86 % of control
T/C (endpoint: mean survival time, dose: 1.25 mg/kg/injection, schedule: Q01DX009 (ip), vehicle: saline sonified): 96 % of control
T/C (endpoint: mean survival time, dose: 2.5 mg/kg/injection, schedule: Q01DX009 (ip), vehicle: saline sonified): 90 % of control
T/C (endpoint: mean survival time, dose: 5.0 mg/kg/injection, schedule: Q04DX003 (ip), vehicle: saline with Tween-80): 95 % of control
T/C (endpoint: mean survival time, dose: 10.0 mg/kg/injection, schedule: Q04DX003 (ip), vehicle: saline with Tween-80): 101 % of control
T/C (endpoint: mean survival time, dose: 20.0 mg/kg/injection, schedule: Q04DX003 (ip), vehicle: saline with Tween-80): 112 % of control

CN=C(N)N/N=C/c1ccccc1
T/C (endpoint: mean survival time, dose: 7.5 mg/kg/injection, schedule: Q04DX003 (ip), vehicle: saline): 95 % of control
T/C (endpoint: mean survival time, dose: 15.0 mg/kg/injection, schedule: Q04DX003 (ip), vehicle: saline): 97 % of control
T/C (endpoint: mean survival time, dose: 30.0 mg/kg/injection, schedule: Q04DX003 (ip), vehicle: saline): 112 % of control

O=C1OC(c2ccccc2)(c2ccccc2)C(=O)N1c1ccc(Br)cc1
T/C (endpoint: median survival time, dose: 3.13 mg/kg/injection, schedule: Q04DX002 (ip), vehicle: saline with Tween-80): 100 % of control
T/C (endpoint: median survival time, dose: 6.25 mg/kg/injection, schedule: Q04DX002 (ip), vehicle: saline with Tween-80): 100 % of control
T/C (endpoint: median survival time, dose: 12.5 mg/kg/injection, schedule: Q04DX002 (ip), vehicle: saline with Tween-80): 111 % of control
T/C (endpoint: median survival time, dose: 25.0 mg/kg/injection, schedule: Q04DX002 (ip), vehicle: saline with Tween-80): 111 % of control
T/C (endpoint: median survival time, dose: 25.0 mg/kg/injection, schedule: Q04DX003 (ip), vehicle: saline with Tween-80): 94 % of control

O/N=C(/Cc1ccccc1)c1ccccc1
T/C (endpoint: mean survival time, dose: 100.0 mg/kg/injection, schedule: Q01DX001 (ip), vehicle: saline with Tween-80): 100 % of control
T/C (endpoint: mean survival time, dose: 200.0 mg/kg/injection, schedule: Q01DX001 (ip), vehicle: saline with Tween-80): 92 % of control
T/C (endpoint: mean survival time, dose: 400.0 mg/kg/injection, schedule: Q01DX001 (ip), vehicle: saline with Tween-80): 90 % of control

CC(CCCC1SCC2NC(=O)NC21)C(=O)O (stereo not drawn)
T/C [1]: 98 % of control
T/C [2]: 98 % of control
T/C [3]: 98 % of control

O=C(O)CC1(O)CCCCC1c1ccccc1 (stereo not drawn)
T/C [1]: 104 % of control
T/C [2]: 105 % of control
T/C [3]: 88 % of control

O=c1[nH]cnc2c1ncn2C1OC(CO)C(O)C1O.O=c1[nH]cnc2c1ncn2C1OC(CO)C(O)C1O.[Cl][Pt][Cl] (stereo not drawn)
T/C (endpoint: mean survival time, dose: 12.5 mg/kg/injection, schedule: Q01DX009 (ip), vehicle: water): 103 % of control
T/C (endpoint: mean survival time, dose: 25.0 mg/kg/injection, schedule: Q01DX009 (ip), vehicle: water): 101 % of control
T/C (endpoint: mean survival time, dose: 50.0 mg/kg/injection, schedule: Q01DX009 (ip), vehicle: water): 101 % of control
T/C (endpoint: mean survival time, dose: 100.0 mg/kg/injection, schedule: Q01DX009 (ip), vehicle: water): 101 % of control
T/C (endpoint: mean survival time, dose: 200.0 mg/kg/injection, schedule: Q01DX009 (ip), vehicle: water): 97 % of control

OCC12COCN1COC2
T/C (endpoint: mean survival time, dose: 12.5 mg/kg/injection, schedule: Q01DX009 (ip), vehicle: saline): 98 % of control and 104 % of control
T/C (endpoint: mean survival time, dose: 25.0 mg/kg/injection, schedule: Q01DX009 (ip), vehicle: saline): 94 % of control and 96 % of control
T/C (endpoint: mean survival time, dose: 50.0 mg/kg/injection, schedule: Q01DX009 (ip), vehicle: saline): 101 % of control and 104 % of control
T/C [4]: 98 % of control and 101 % of control
T/C [5]: 96 % of control and 106 % of control
T/C [6]: 109 % of control and 112 % of control

CCCC[N-]CC(O)C[NH-].O=C(O)CC(=O)O.[Pt+2] (stereo not drawn)
T/C (endpoint: median survival time, dose: 10.0 mg/kg/injection, schedule: Q04DX003 (ip), vehicle: water): 105 % of control
T/C (endpoint: median survival time, dose: 20.0 mg/kg/injection, schedule: Q04DX003 (ip), vehicle: water): 103 % of control
T/C (endpoint: median survival time, dose: 40.0 mg/kg/injection, schedule: Q04DX003 (ip), vehicle: water): 105 % of control
T/C (endpoint: median survival time, dose: 50.5 mg/kg/injection, schedule: Q04DX003 (ip), vehicle: water): 103 % of control
T/C (endpoint: median survival time, dose: 80.0 mg/kg/injection, schedule: Q04DX003 (ip), vehicle: water): 97 % of control
T/C (endpoint: median survival time, dose: 101.0 mg/kg/injection, schedule: Q04DX003 (ip), vehicle: water): 103 % of control
T/C (endpoint: median survival time, dose: 202.0 mg/kg/injection, schedule: Q04DX003 (ip), vehicle: water): 107 % of control

CCCCCCCCCCCC[N+]1(C)CCOCC1
T/C (endpoint: mean survival time, dose: 12.5 mg/kg/injection, schedule: Q01DX009 (ip), vehicle: Klucel (hydroxypropylcellulose) (HPC)): 102 % of control
T/C (endpoint: mean survival time, dose: 25.0 mg/kg/injection, schedule: Q01DX009 (ip), vehicle: Klucel (hydroxypropylcellulose) (HPC)): 98 % of control
T/C (endpoint: mean survival time, dose: 50.0 mg/kg/injection, schedule: Q01DX009 (ip), vehicle: Klucel (hydroxypropylcellulose) (HPC)): 98 % of control

O=C1C=CC(=O)N1c1nccs1
T/C [7]: 91 % of control
T/C [8]: 95 % of control
T/C [9]: 95 % of control

CCCN(CCC)C(=O)[S-].CCCN(CCC)C(=O)[S-].[Ni+2]
T/C (endpoint: mean survival time, dose: 6.25 mg/kg/injection, schedule: Q01DX009 (ip), vehicle: saline with Tween-80): 95 % of control
T/C (endpoint: mean survival time, dose: 6.25 mg/kg/injection, schedule: Q04DX003 (ip), vehicle: saline sonified): 99 % of control
T/C (endpoint: mean survival time, dose: 12.5 mg/kg/injection, schedule: Q01DX009 (ip), vehicle: saline with Tween-80): 106 % of control
T/C (endpoint: mean survival time, dose: 12.5 mg/kg/injection, schedule: Q04DX003 (ip), vehicle: saline sonified): 97 % of control
T/C (endpoint: mean survival time, dose: 25.0 mg/kg/injection, schedule: Q01DX009 (ip), vehicle: saline with Tween-80): 106 % of control
T/C (endpoint: mean survival time, dose: 25.0 mg/kg/injection, schedule: Q04DX003 (ip), vehicle: saline sonified): 103 % of control

COc1ccc(Nc2ncnc3c2ncn3C2OC(CO)C(O)C2O)cc1 (stereo not drawn)
T/C (endpoint: mean survival time, dose: 6.25 mg/kg/injection, schedule: Q01DX005 (ip), vehicle: distilled water + Tween-80): 101 % of control
T/C (endpoint: mean survival time, dose: 12.5 mg/kg/injection, schedule: Q01DX005 (ip), vehicle: distilled water + Tween-80): 102 % of control and 96 % of control
T/C (endpoint: mean survival time, dose: 25.0 mg/kg/injection, schedule: Q01DX005 (ip), vehicle: distilled water + Tween-80): 104 % of control and 96 % of control
T/C (endpoint: mean survival time, dose: 50.0 mg/kg/injection, schedule: Q01DX005 (ip), vehicle: distilled water + Tween-80): 91 % of control
T/C (endpoint: mean survival time, dose: 100.0 mg/kg/injection, schedule: Q01DX005 (ip), vehicle: distilled water + Tween-80): 102 % of control
T/C (endpoint: mean survival time, dose: 200.0 mg/kg/injection, schedule: Q01DX005 (ip), vehicle: distilled water + Tween-80): 100 % of control

Brc1ccc(-c2nc3sc(-c4ccc(Br)cc4)nc3s2)cc1
T/C [7]: 108 % of control
T/C [8]: 104 % of control
T/C [9]: 102 % of control

CCC(=O)OCC1OC(n2ccc(O)cc2=O)C(O)C1O (stereo not drawn)
T/C (endpoint: median survival time, dose: 44.0 mg/kg/injection, schedule: Q01DX009 (ip), vehicle: saline + alcohol): 178 % of control
T/C (endpoint: median survival time, dose: 67.0 mg/kg/injection, schedule: Q01DX009 (ip), vehicle: saline + alcohol): 174 % of control
T/C (endpoint: median survival time, dose: 100.0 mg/kg/injection, schedule: Q01DX009 (ip), vehicle: saline + alcohol): 174 % of control
T/C (endpoint: median survival time, dose: 150.0 mg/kg/injection, schedule: Q01DX009 (ip), vehicle: saline + alcohol): 153 % of control

O=C(O)CSc1c(Cl)c(=O)oc2ccc(Cl)cc12
T/C (endpoint: median survival time, dose: 6.25 mg/kg/injection, schedule: Q01DX009 (ip), vehicle: Klucel (hydroxypropylcellulose) (HPC)): 101 % of control
T/C (endpoint: median survival time, dose: 12.5 mg/kg/injection, schedule: Q01DX009 (ip), vehicle: Klucel (hydroxypropylcellulose) (HPC)): 101 % of control
T/C (endpoint: median survival time, dose: 25.0 mg/kg/injection, schedule: Q01DX009 (ip), vehicle: Klucel (hydroxypropylcellulose) (HPC)): 97 % of control
T/C (endpoint: median survival time, dose: 50.0 mg/kg/injection, schedule: Q01DX009 (ip), vehicle: Klucel (hydroxypropylcellulose) (HPC)): 94 % of control
T/C (endpoint: median survival time, dose: 100.0 mg/kg/injection, schedule: Q01DX009 (ip), vehicle: Klucel (hydroxypropylcellulose) (HPC)): 108 % of control
T/C (endpoint: median survival time, dose: 200.0 mg/kg/injection, schedule: Q01DX009 (ip), vehicle: Klucel (hydroxypropylcellulose) (HPC)): 104 % of control

O=P1(OCCCCCl)NCCCO1 (stereo not drawn)
T/C (endpoint: mean survival time, dose: 62.5 mg/kg/injection, schedule: Q01DX001 (ip), vehicle: water): 103 % of control
T/C (endpoint: mean survival time, dose: 125.0 mg/kg/injection, schedule: Q01DX001 (ip), vehicle: water): 104 % of control
T/C (endpoint: mean survival time, dose: 250.0 mg/kg/injection, schedule: Q01DX001 (ip), vehicle: water): 103 % of control
T/C (endpoint: mean survival time, dose: 500.0 mg/kg/injection, schedule: Q01DX001 (ip), vehicle: water): 108 % of control
T/C (endpoint: mean survival time, dose: 750.0 mg/kg/injection, schedule: Q01DX001 (ip), vehicle: water): 101 % of control

CCO/N=C(\C)C(N)=O
T/C [7]: 101 % of control
T/C [8]: 108 % of control
T/C [9]: 95 % of control

O=C/C=C/Nc1ccccc1
T/C [4]: 94 % of control
T/C [5]: 102 % of control
T/C [6]: 96 % of control
